Test results from patent US20210330611A1, “THERAPY FOR NEUROLOGICAL DISEASES/DISORDERS” (priority 2020, published 2021).
Where two headings read alike, the source gives them in different places.

What was measured:
[1] = tested on: fibrin-induced microglia activation; experiment: Image-based assay of fibrin-induced microglia activation (HTS and dose response); assay type: cell-based, rat; conditions: for inhibition at 10 µM: Rattus norvegicus, Microglia, read-out: Fibrin % inhibition
primary rat microglia [2] = experiment: Cell toxicity (dead cells, size <150 μm2) in coated fibrin (cFib) assay;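 also: share of dead cells sized under 150 µm2 at 10 µM in fibrin-stimulated microglia HTS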
[3] = tested on: fibrin- and LPS-induced microglia activation; experiment: cells; assay type: cell-based, rat
primary rat microglia [4] = experiment: Cell toxicity (dead cells, size <150 μm2) in LPS assay
[5] = tested on: LPS-induced microglia activation; experiment: Image-based assay of LPS-induced microglia activation (HTS and dose response); assay type: cell-based, rat; conditions: for inhibition at 10 µM: Rattus norvegicus, Microglia, read-out: LPS % inhibition
[6] = primary microglia HTS, fibrin stimulation, increased cell size (>800 μm^2) as marker of activation
[7] = primary microglia HTS, fibrin stimulation, decreased size (<150 μm^2) as marker of toxicity
[8] = quadrant by fibrin and LPS inhibition in HTS of 1907 compounds
[9] = primary microglia HTS, LPS stimulation, decreased size (<150 μm^2) as marker of toxicity
[10] = 48 h, primary microglia HTS, LPS stimulation, increased cell size (>800 μm^2) as marker of activation
[11] = primary microglia HTS, fibrin stimulation, activation = cell size >800 μm2
[12] = primary microglia HTS, fibrin stimulation, toxicity = cell size <150 μm2
[13] = primary microglia HTS, LPS stimulation, toxicity = cell size <150 μm2
[14] = primary HTS, 10 μM, fibrin-stimulated primary microglia
[15] = primary HTS, 10 μM, fibrin assay, dead cells size <150 μm2
[16] = primary HTS, 10 μM, LPS assay, dead cells size <150 μm2
[17] = primary HTS, 10 μM, LPS-stimulated primary microglia
[18] = primary microglia HTS, 10 μM, fibrin-stimulated, cell size >800 μm^2 as marker of activation
[19] = primary microglia HTS, 10 μM, fibrin assay, cell size <150 μm^2 as marker of toxicity
[20] = HTS of 1907 compounds, quadrant by fibrin and LPS inhibition
[21] = primary microglia HTS, 10 μM, LPS assay, cell size <150 μm^2 as marker of toxicity
[22] = primary microglia HTS, 10 μM, LPS-stimulated, cell size >800 μm^2 as marker of activation
[23] = primary microglia HTS, LPS stimulation, increased cell size (>800 μm^2) as marker of activation

Row | SMILES | Fibrin % cell toxicity (primary rat microglia [2]; [7]) | Quadrant (FIG. 5b) [3, 8] | LPS % cell toxicity (primary rat microglia [4]; [9]) | inhibition at 10 µM [1, 14] | Fibrin % cell toxicity (primary rat microglia [2]; [15]) | Quadrant (FIG. 5b) ([3]; primary HTS, 10 μM) | LPS % cell toxicity (primary rat microglia [4]; [16]) | inhibition at 10 µM [5, 17] | also measured
1 | O=[N+]([O-])c1ccc(O)c2ncccc12 [Nitroxoline] | 1% | Q4 | 0% | – | – | – | – | – | inhibition at 10 µM [1, 6]: -5%; inhibition at 10 µM [5, 10]: -6%
2 | N=C(N)N/N=C/c1c(Cl)cccc1Cl [Guanabenz] | – | Q4 | – | – | – | – | – | – | inhibition at 10 µM [1, 11]: -46%; Fibrin % cell toxicity (primary rat microglia [2]; [12]): 1%; LPS % cell toxicity (primary rat microglia [4]; [13]): 0%; LPS % inhibition ([5]; primary microglia HTS, LPS stimulation, activation = cell size >800 μm2): −18%
3 | Cc1ccc2c(Cl)cc(Cl)c(O)c2n1 [Chlorquinaldol] | – | – | – | -14% | 1% | Q4 | 0% | 15% | –
4 | Cc1onc(-c2ccccc2)c1-c1ccc(S(N)(=O)=O)cc1 [Valdecoxib] | – | – | – | – | – | – | – | – | inhibition at 10 µM [1, 18]: -39%; Fibrin % cell toxicity (primary rat microglia [2]; [19]): 1%; Quadrant (FIG. 5b) [3, 20]: Q4; LPS % cell toxicity (primary rat microglia [4]; [21]): 0%; inhibition at 10 µM [5, 22]: -4%
5 | Cc1c(N(C)CS(=O)(=O)[O-])c(=O)n(-c2ccccc2)n1C.[Na+] [Dipyrone] | 26% | Q2 | 36% | – | – | – | – | – | Fibrin % inhibition [1, 6]: 106%; LPS % inhibition [5, 23]: 101%
6 | Cc1cc(O)ccc1Cl [Chlorocresol] | – | – | – | -25% | 1% | Q4 | 0% | 11% | –
7 | CC(C)(Oc1ccc(Cl)cc1)C(=O)O [Clofibric Acid] | – | – | – | -27% | 1% | Q4 | 0% | 15% | –
8 | C=CCN1C[C@H](C(=O)N(CCCN(C)C)C(=O)NCC)C[C@@H]2c3cccc4[nH]cc(c34)C[C@H]21 [Cabergoline] | – | – | – | 20% | 1% | Q4 | 1% | 33% | –
9 | Cn1cnc2c1c(=O)[nH]c(=O)n2C [Theobromine] | – | – | – | – | – | – | – | – | inhibition at 10 µM [1, 18]: 11%; Fibrin % cell toxicity (primary rat microglia [2]; [19]): 0%; Quadrant (FIG. 5b) [3, 20]: Q4; LPS % cell toxicity (primary rat microglia [4]; [21]): 1%; inhibition at 10 µM [5, 22]: 18%
10 | NC(=O)C[S+]([O-])C(c1ccccc1)c1ccccc1 (centres unmarked) [Modafinil] | 1% | Q4 | 0% | – | – | – | – | – | inhibition at 10 µM [1, 6]: -5%; inhibition at 10 µM [5, 10]: 25%
11 | Cc1ccc(O)cc1 [P-Cresol] | 0% | Q4 | 0% | – | – | – | – | – | Fibrin % inhibition [1, 6]: −15%; LPS % inhibition [5, 23]: 15%
12 | CCC(NC(C)C)C(O)c1ccc(O)c(O)c1 (centres unmarked) [Isoetarine] | – | Q4 | – | – | – | – | – | – | inhibition at 10 µM [1, 11]: 21%; Fibrin % cell toxicity (primary rat microglia [2]; [12]): 1%; LPS % cell toxicity (primary rat microglia [4]; [13]): 0%; inhibition at 10 µM ([5]; 48 h, primary microglia HTS, LPS stimulation, activation = cell size >800 μm2): 23%
13 | NC(=O)N[C@@H](CCC(=O)O)C(=O)O [Carglumic Acid] | – | – | – | 1% | 1% | Q4 | 0% | 6% | –
14 | CO/N=C(\C(=O)N[C@@H]1C(=O)N2C(C(=O)[O-])=C(C[N+]3(C)CCCC3)CS[C@H]12)c1csc(N)n1 [Cefepime] | – | – | – | -26% | 1% | Q4 | 0% | 4% | –
15 | O=C(O)CCC(=O)Nc1ccc(S(=O)(=O)Nc2nccs2)cc1 [Succinylsulfathiazole] | – | – | – | – | – | – | – | – | inhibition at 10 µM [1, 18]: 15%; Fibrin % cell toxicity (primary rat microglia [2]; [19]): 1%; Quadrant (FIG. 5b) [3, 20]: Q4; LPS % cell toxicity (primary rat microglia [4]; [21]): 1%; inhibition at 10 µM [5, 22]: 16%
16 | CC(=O)OC[C@H]1O[C@@H]([S-])[C@H](OC(C)=O)[C@@H](OC(C)=O)[C@@H]1OC(C)=O.CCP(CC)CC.[Au+] [Auranofin] | 94% | Q2 | 98% | – | – | – | – | – | Fibrin % inhibition [1, 6]: 106%; LPS % inhibition [5, 23]: 106%
